Source: patent publication US11497212B2, “Substituted thiophenyl uracils, salts thereof and the use thereof as herbicidal agents” (Syngenta Crop Protection AG, priority 2017, dated 2022)

Legend:
Type in all cases: in vivo
[1] = test system: Abutilon theophrasti; experiment: Herbicidal action post-emergence (greenhouse pot trial); conditions: scored visually after about 3 weeks vs untreated controls
Procedure, shortened: (§1)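 Percent herbicidal efficacy, assessed by eye about 3 weeks after spraying, compares treated with untreated plants. Treatment is a post-emergence spray at the one-leaf stage, using a WP or EC preparation plus 0.5% additive in 600 L/ha of water, at 80 g/ha or lower.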

[2] = test system: Amaranthus retroflexus; experiment: as above; conditions: application rate 20 g/ha, scored visually after about 3 weeks vs untreated controls
Procedure, shortened: as §1

[3] = test system: Digitaria sanguinalis; experiment: as above; conditions: application rate 20 g/ha
Procedure, shortened: as §1

[4] = test system: Echinochloa crus-galli; experiment: as above; conditions: application rate 20 g/ha, scored visually after about 3 weeks vs untreated controls
Procedure, shortened: as §1

[5] = test system: Matricaria inodora; experiment: as above; conditions: scored visually after about 3 weeks vs untreated controls
Procedure, shortened: as §1

[6] = test system: Pharbitis purpurea; experiment: as above
Procedure, shortened: as §1

[7] = test system: Polygonum convolvulus; experiment: as above; conditions: scored visually after about 3 weeks vs untreated controls
Procedure, shortened: as §1

[8] = test system: Setaria viridis; experiment: as above; conditions: scored visually after about 3 weeks vs untreated controls
Procedure, shortened: as §1

[9] = test system: Stellaria media; experiment: as above; conditions: application rate 20 g/ha, scored visually after about 3 weeks vs untreated controls
Procedure, shortened: as §1

[10] = test system: Veronica persica; experiment: as above; conditions: application rate 20 g/ha
Procedure, shortened: as §1

[11] = test system: Viola tricolor; experiment: as above
Procedure, shortened: as §1

[12] = test system: Oryza sativa; experiment: Crop compatibility post-emergence (greenhouse pot trial); conditions: application rate 20 g/ha
Procedure, shortened: (§2)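 Greenhouse pot trial: sandy loam, sown seeds, treatment at one-leaf stage 2–3 wk after sowing. Spray: aqueous WP/EC preparation, 0.5% additive, 600 L/ha. Readout: visual % effect after ~3 wk relative to untreated plants.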

[13] = test system: Triticum aestivum; experiment: as above
Procedure, shortened: as §2

[14] = test system: Zea mays; experiment: as above
Procedure, shortened: as §2

[15] = test system: Abutilon theophrasti; experiment: Herbicidal action pre-emergence (greenhouse pot trial); conditions: scored after about 3 weeks
From the text: (§3) Seeds of mono- and dicotyledonous weeds and crop plants were laid out in plastic or organic plant pots and covered with soil. The compounds of the invention formulated in the form of wettable powders (WP) or emulsion concentrates (EC) were then applied to the surface of the covering soil as an aqueous suspension or emulsion with addition of 0.5% additive at a water application rate equivalent to 600 L/ha. After the treatment, the pots were placed in a greenhouse and kept under good growth conditions for the test plants. After about 3 weeks, the efficacy of the preparations was scored visually as a percentage by comparison with untreated controls. For example, 100% efficacy=plants have died, 0% efficacy=like control plants. Tables B1 to B16 below show the efficacies of selected compounds of the general formula (I) according to tables I.1 to I.60 on various harmful plants and an application rate corresponding to 320 g/ha or lower that were obtained by the aforementioned trial method.

[16] = test system: Amaranthus retroflexus; experiment: as above; conditions: scored after about 3 weeks
From the text: as §3

[17] = test system: Digitaria sanguinalis; experiment: as above; conditions: application rate 80 g/ha
From the text: as §3

[18] = test system: Matricaria inodora; experiment: as above; conditions: scored after about 3 weeks
From the text: as §3

[19] = test system: Pharbitis purpurea; experiment: as above
From the text: as §3

[20] = test system: Setaria viridis; experiment: as above; conditions: scored after about 3 weeks
From the text: as §3

[21] = test system: Stellaria media; experiment: as above; conditions: scored after about 3 weeks
From the text: as §3

[22] = test system: Veronica persica; experiment: as above
From the text: as §3

[23] = test system: Viola tricolor; experiment: as above; conditions: scored after about 3 weeks
From the text: as §3

[24] = test system: Zea mays; experiment: Crop compatibility pre-emergence (greenhouse pot trial); conditions: application rate 80 g/ha, effect vs untreated controls
From the text: as §3, with “plants.” for “plants. Tables B1 to B16 below show the efficacies of selected compounds of the general formula (I) according to tables I.1 to I.60 on various harmful plants and an application rate corresponding to 320 g/ha or lower that were obtained by the aforementioned trial method.”
(§4) Crop compatibilities were also scored correspondingly.
(§5) The effects observed are reported here on selected crop plants by comparison with the untreated controls (values in %).

[25] = test system: Glycine max; experiment: Crop compatibility post-emergence (greenhouse pot trial); conditions: application rate 20 g/ha
Procedure, shortened: as §2

[26] = test system: Alopecurus myosuroides; experiment: Herbicidal action pre-emergence (greenhouse pot trial); conditions: application rate 320 g/ha, scored after about 3 weeks
From the text: as §3

[27] = test system: Avena fatua; experiment: as above; conditions: application rate 320 g/ha
From the text: as §3

[28] = test system: Echinochloa crus-galli; experiment: as above; conditions: application rate 320 g/ha, scored after about 3 weeks
From the text: as §3

[29] = test system: Lolium rigidum; experiment: as above; conditions: application rate 320 g/ha
From the text: as §3

[30] = test system: Glycine max; experiment: Crop compatibility pre-emergence (greenhouse pot trial); conditions: application rate 80 g/ha, effect vs untreated controls
From the text: as §3, with “plants.” for “plants. Tables B1 to B16 below show the efficacies of selected compounds of the general formula (I) according to tables I.1 to I.60 on various harmful plants and an application rate corresponding to 320 g/ha or lower that were obtained by the aforementioned trial method.”
as §4, §5

[31] = test system: Hordeum murinum; experiment: Herbicidal action post-emergence (greenhouse pot trial); conditions: application rate 20 g/ha, scored visually after about 3 weeks vs untreated controls
Procedure, shortened: as §1

In the case of `CC(Sc1cc(-n2c(=O)cc(C(F)(F)F)n(C)c2=O)c(F)cc1Cl)C(=O)OCC1CCSC1` (stereo not shown) [I.1-82], the “Abutilon theophrasti (Efficacy in %)” value ([1]; application rate 20 g/ha) is reported as 100%, the “Amaranthus retroflexus (Efficacy in %)” value [2] is reported as 100% and the “Digitaria sanguinalis (Efficacy in %)” value [3] is reported as 100%. The “Echinochloa crus-galli (Efficacy in %)” value [4] was 100%, the “Matricaria inodora (Efficacy in %)” value ([5]; application rate 20 g/ha) was 100% and the “Pharbitis purpurea (Efficacy in %)” value ([6]; application rate 20 g/ha) was 100%. The “Polygonum convolvulus (Efficacy in %)” value ([7]; application rate 20 g/ha) was 100%, the “Setaria viridis (Efficacy in %)” value ([8]; application rate 20 g/ha) was 80% and the “Stellaria media (Efficacy in %)” value [9] was 80%. The “Veronica persica (Efficacy in %)” value [10] was 100%, the “Viola tricolor (Efficacy in %)” value ([11]; application rate 20 g/ha) was 100% and the “Oryza sativa (Efficacy in %)” value [12] was 10%. The “Triticum aestivum (Efficacy in %)” value ([13]; application rate 5 g/ha) was 0%, the “Zea mays (Efficacy in %)” value ([14]; application rate 20 g/ha) was 20% and the “Abutilon theophrasti (Efficacy in %)” value ([15]; application rate 80 g/ha) was 100%. The “Amaranthus retroflexus (Efficacy in %)” value ([16]; application rate 80 g/ha) was 100%, the “Digitaria sanguinalis (Efficacy in %)” value [17] was 80% and the “Matricaria inodora (Efficacy in %)” value ([18]; application rate 80 g/ha) was 100%. For the same molecule, the “Pharbitis purpurea (Efficacy in %)” value ([19]; application rate 80 g/ha) was 100%, the “Setaria viridis (Efficacy in %)” value ([20]; application rate 80 g/ha) was 100% and the “Stellaria media (Efficacy in %)” value ([21]; application rate 80 g/ha) was 100%. For the same molecule, the “Veronica persica (Efficacy in %)” value ([22]; application rate 80 g/ha) was 100%, the “Viola tricolor (Efficacy in %)” value ([23]; application rate 80 g/ha) was 100% and the “Zea mays (Efficacy in %)” value [24] was 0%.

`CC(Sc1cc(-n2c(=O)cc(C(F)(F)F)n(C)c2=O)c(F)cc1Cl)C(=O)NC1(C#N)CCSC1` (stereo not shown) [I.1-340] was tested, and the “Abutilon theophrasti (Efficacy in %)” value ([1]; application rate 80 g/ha) was 100%, the “Matricaria inodora (Efficacy in %)” value ([5]; application rate 80 g/ha) was 100% and the “Pharbitis purpurea (Efficacy in %)” value ([6]; application rate 80 g/ha) was 100%. For the same molecule, the “Polygonum convolvulus (Efficacy in %)” value ([7]; application rate 80 g/ha) was 100%, the “Setaria viridis (Efficacy in %)” value ([8]; application rate 80 g/ha) was 80% and the “Viola tricolor (Efficacy in %)” value ([11]; application rate 80 g/ha) was 100%. For the same molecule, the “Glycine max (Efficacy in %)” value [25] was 20%, the “Oryza sativa (Efficacy in %)” value [12] was 10% and the “Triticum aestivum (Efficacy in %)” value ([13]; application rate 20 g/ha) was 20%. The “Zea mays (Efficacy in %)” value ([14]; application rate 80 g/ha) was 0%, the “Abutilon theophrasti (Efficacy in %)” value ([15]; application rate 320 g/ha) was 100% and the “Alopecurus myosuroides (Efficacy in %)” value [26] was 90%. For the same molecule, the “Amaranthus retroflexus (Efficacy in %)” value ([16]; application rate 320 g/ha) was 100%, the “Avena fatua (Efficacy in %)” value [27] was 80% and the “Echinochloa crus-galli (Efficacy in %)” value [28] was 100%. For the same molecule, the “Lolium rigidum (Efficacy in %)” value [29] was 100%, the “Matricaria inodora (Efficacy in %)” value ([18]; application rate 320 g/ha) was 100% and the “Pharbitis purpurea (Efficacy in %)” value ([19]; application rate 320 g/ha) was 100%. The “Setaria viridis (Efficacy in %)” value ([20]; application rate 320 g/ha) was 100%, the “Stellaria media (Efficacy in %)” value ([21]; application rate 320 g/ha) was 100% and the “Veronica persica (Efficacy in %)” value ([22]; application rate 320 g/ha) was 100%. For the same molecule, the “Viola tricolor (Efficacy in %)” value ([23]; application rate 320 g/ha) was 100%, the “Glycine max (Efficacy in %)” value [30] was 20% and the “Zea mays (Efficacy in %)” value [24] was 0%.

With `CC(Sc1cc(-n2c(=O)cc(C(F)(F)F)n(C)c2=O)c(F)cc1Cl)C(=O)OCCCSC(F)(F)F` (stereo not shown) [I.1-48] the “Abutilon theophrasti (Efficacy in %)” value ([1]; application rate 20 g/ha) was 100%, the “Amaranthus retroflexus (Efficacy in %)” value [2] was 100% and the “Digitaria sanguinalis (Efficacy in %)” value [3] was 100%. For the same molecule, the “Echinochloa crus-galli (Efficacy in %)” value [4] was 100%, the “Hordeum murinum (Efficacy in %)” value [31] was 80% and the “Matricaria inodora (Efficacy in %)” value ([5]; application rate 20 g/ha) was 100%. The “Pharbitis purpurea (Efficacy in %)” value ([6]; application rate 20 g/ha) was 100%, the “Polygonum convolvulus (Efficacy in %)” value ([7]; application rate 20 g/ha) was 100% and the “Setaria viridis (Efficacy in %)” value ([8]; application rate 20 g/ha) was 100%. For the same molecule, the “Stellaria media (Efficacy in %)” value [9] was 100%, the “Veronica persica (Efficacy in %)” value [10] was 100% and the “Viola tricolor (Efficacy in %)” value ([11]; application rate 20 g/ha) was 100%. For the same molecule, the “Triticum aestivum (Efficacy in %)” value ([13]; application rate 5 g/ha) was 10%.
